31 compounds from patent US8802700B2 (Vertex Pharmaceuticals Incorporated, priority 2010, dated 2014) can be followed below.

For this assay, the target named is T1, ΔF508-CFTR (Homo sapiens, UniProt P13569, DEL508-508).
T1 construct: expressed in transfected cells
Put plainly: Membrane potential optical assay (FRET voltage-sensor dyes, VIPR), identification of potentiator compounds. The assay is classed as cell-based. To be noted: Table 3, assay not given; for Emax: read-out: % Activity (% Efficacy, relative efficacy). An excerpt:
The optical membrane potential assay utilized voltage-sensitive FRET sensors described by Gonzalez and Tsien (See Gonzalez, J. E. and R. Y. Tsien (1995) “Voltage sensing by fluorescence resonance energy transfer in single cells” Biophys J 69(4): 1272-80, and Gonzalez, J. E. and R. Y. Tsien (1997) “Improved indicators of cell membrane potential that use fluorescence resonance energy transfer” Chem Biol 4(4): 269-77) in combination with instrumentation for measuring fluorescence changes such as the Voltage/Ion Probe Reader (VIPR) (See […]. Oades, et al. (1999) “Cell-based assays and instrumentation for screening ion-channel targets” Drug Discov Today 4(9): 431-439). These voltage sensitive assays are based on the change in fluorescence resonant energy transfer (FRET) between the membrane-soluble, voltage-sensitive dye, DiSBAC2(3), and a fluorescent phospholipid, CC2-DMPE, which is attached to the outer leaflet of the plasma membrane and acts as a FRET donor. Changes in membrane potential (Vm) cause the negatively charged DiSBAC2(3) to redistribute across the plasma membrane and the amount of energy transfer from CC2-DMPE changes accordingly. The changes in fluorescence emission were monitored using VIPRTM II, which is an integrated liquid handler and fluorescent detector designed to conduct cell-based screens in 96- or 384-well microtiter plates. To identify potentiators of ΔF508-CFTR, a double-addition HTS assay format was developed. During the first addition, a Cl^--free medium with or without test compound was added to each well. […] (in mM) NaCl 160, KCl 4.5, CaCl2 2, MgCl2 1, HEPES 10, pH 7.4 with NaOH. • Chloride-free bath solution: Chloride salts in Bath Solution #1 are substituted with gluconate salts. • CC2-DMPE: Prepared as a 10 mM stock solution in DMSO and stored at -20° C. • DiSBAC2(3): Prepared as a 10 mM stock in DMSO and stored at -20° C. NIH3T3 mouse fibroblasts stably expressing ΔF508-CFTR are used for optical measurements of membrane potential. […] For all optical assays, the cells were seeded at 30,000/well in 384-well matrigel-coated plates and cultured for 2 hrs at 37° C. before culturing at 27° C. for 24 hrs. for the potentiator assay.

T1 sequence (P13569 with tags, fused parts or gaps DEL508-508): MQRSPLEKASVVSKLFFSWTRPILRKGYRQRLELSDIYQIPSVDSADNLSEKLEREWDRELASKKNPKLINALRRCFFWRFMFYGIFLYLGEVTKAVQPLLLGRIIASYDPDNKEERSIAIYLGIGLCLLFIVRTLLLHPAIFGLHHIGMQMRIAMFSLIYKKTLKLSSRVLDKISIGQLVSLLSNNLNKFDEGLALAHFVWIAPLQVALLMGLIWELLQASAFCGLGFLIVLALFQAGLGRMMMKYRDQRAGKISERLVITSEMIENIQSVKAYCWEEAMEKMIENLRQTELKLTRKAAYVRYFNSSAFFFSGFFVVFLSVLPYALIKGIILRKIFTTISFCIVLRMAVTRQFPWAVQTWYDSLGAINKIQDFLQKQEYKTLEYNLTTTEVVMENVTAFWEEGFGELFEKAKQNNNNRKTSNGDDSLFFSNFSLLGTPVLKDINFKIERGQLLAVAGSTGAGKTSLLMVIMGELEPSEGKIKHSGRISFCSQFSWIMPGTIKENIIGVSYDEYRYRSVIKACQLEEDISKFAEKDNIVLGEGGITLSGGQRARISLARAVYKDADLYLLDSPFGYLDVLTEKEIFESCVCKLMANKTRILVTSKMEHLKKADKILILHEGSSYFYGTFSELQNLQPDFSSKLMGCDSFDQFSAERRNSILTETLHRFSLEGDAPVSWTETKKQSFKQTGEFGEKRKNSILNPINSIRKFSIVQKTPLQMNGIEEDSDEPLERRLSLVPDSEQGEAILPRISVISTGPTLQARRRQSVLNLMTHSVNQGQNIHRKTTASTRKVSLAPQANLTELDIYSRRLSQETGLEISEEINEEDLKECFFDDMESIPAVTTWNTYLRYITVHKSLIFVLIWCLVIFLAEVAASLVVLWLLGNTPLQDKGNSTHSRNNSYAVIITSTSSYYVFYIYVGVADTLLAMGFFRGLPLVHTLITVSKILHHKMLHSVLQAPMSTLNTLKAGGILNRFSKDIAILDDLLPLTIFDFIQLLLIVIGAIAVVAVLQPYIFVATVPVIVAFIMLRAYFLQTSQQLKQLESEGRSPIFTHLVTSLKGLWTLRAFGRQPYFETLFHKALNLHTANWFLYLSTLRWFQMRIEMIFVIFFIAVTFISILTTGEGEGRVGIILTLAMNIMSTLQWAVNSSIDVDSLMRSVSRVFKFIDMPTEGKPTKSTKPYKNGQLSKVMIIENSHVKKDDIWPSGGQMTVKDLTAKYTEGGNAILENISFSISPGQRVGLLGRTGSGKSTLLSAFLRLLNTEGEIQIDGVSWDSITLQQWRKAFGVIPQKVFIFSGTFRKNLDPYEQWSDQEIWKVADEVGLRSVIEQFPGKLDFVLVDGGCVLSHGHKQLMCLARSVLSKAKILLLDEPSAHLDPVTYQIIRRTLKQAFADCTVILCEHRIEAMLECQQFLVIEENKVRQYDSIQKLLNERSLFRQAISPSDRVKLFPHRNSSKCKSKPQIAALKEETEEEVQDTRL

With `COc1ccc(Cl)cc1-c1cc2cc[nH]c2cc1NC(=O)c1c[nH]c2ccccc2c1=O` [Compound 1, N-[5-(5-chloro-2-methoxy-phenyl)-1H-indol-6-yl]-4-oxo-1H-quinoline-3-carboxamide], the Emax was 25 to 100%.

Regarding `COc1cc(NC(=O)c2c[nH]c3ccccc3c2=O)ccc1C(C)(C)C` [Compound 2, N-(3-methoxy-4-tert-butyl-phenyl)-4-oxo-1H-quinoline-3-carboxamide], the Emax was in the range of 25 to 100%.

As to `COc1ccccc1Oc1ccc(C(F)(F)F)cc1NC(=O)c1c[nH]c2ccccc2c1=O` [Compound 3, N-[2-(2-methoxyphenoxy)-5-(trifluoromethyl)phenyl]-4-oxo-1H-quinoline-3-carboxamide], the Emax lay in the range of 25 to 100%.

As for `O=C(Nc1ccccc1N1CCOCC1)c1c[nH]c2ccccc2c1=O` [Compound 4, N-(2-morpholinophenyl)-4-oxo-1H-quinoline-3-carboxamide], the Emax fell in the range of 25 to 100%.

Turning to `CC(C)(CO)c1ccc(NC(=O)c2c[nH]c3ccccc3c2=O)cc1` [Compound 5, N-[4-(2-hydroxy-1,1-dimethyl-ethyl)phenyl]-4-oxo-1H-quinoline-3-carboxamide], the Emax lay within 25 to 100%.

With `CC(C)(C)c1ccc(NC(=O)c2c[nH]c3ccccc3c2=O)cc1CO` [Compound 6, N-[3-(hydroxymethyl)-4-tert-butyl-phenyl]-4-oxo-1H-quinoline-3-carboxamide], the Emax is above 100%.

Consider `CCOc1cc(NC(=O)c2c[nH]c3ccccc3c2=O)c(OCC)cc1NC(=O)c1ccccc1` [Compound 7, N-(4-benzoylamino-2,5-diethoxy-phenyl)-4-oxo-1H-quinoline-3-carboxamide], for which the Emax was below 25%.

With `CCc1ccc(NC(=O)c2c[nH]c3ccccc3c2=O)cc1N` [Compound 8, N-(3-amino-4-ethyl-phenyl)-4-oxo-1H-quinoline-3-carboxamide], the Emax was 25 to 100%.

In the case of `NS(=O)(=O)c1cccc(NC(=O)c2c[nH]c3ccccc3c2=O)c1` [Compound 9, 4-oxo-N-(3-sulfamoylphenyl)-1H-quinoline-3-carboxamide], the Emax was below 25%.

With `O=C(Nc1ccc2c(c1)NCCCC2)c1c[nH]c2ccccc2c1=O` [Compound 10, 1,4-dihydro-N-(2,3,4,5-tetrahydro-1H-benzo[b]azepin-8-yl)-4-oxoquinoline-3-carboxamide], the Emax is 25 to 100%.

Consider `O=C(Nc1ccccc1-c1ccccc1C(F)(F)F)c1c[nH]c2ccccc2c1=O` [Compound 11, 4-oxo-N-[2-[2-(trifluoromethyl)phenyl]phenyl]-1H-quinoline-3-carboxamide], for which the Emax was 25 to 100%.

On to `CN(C)c1ccc(-c2ccccc2NC(=O)c2c[nH]c3ccccc3c2=O)cc1` [Compound 12, N-[2-(4-dimethylaminophenyl)phenyl]-4-oxo-1H-quinoline-3-carboxamide], for which the Emax lay within 25 to 100%.

`CC(C)(C)c1ccc(NC(=O)c2c[nH]c3ccccc3c2=O)cc1C#N` [Compound 13, N-(3-cyano-4-tert-butyl-phenyl)-4-oxo-1H-quinoline-3-carboxamide]: the Emax lay in the range of 25 to 100%.

As to `COC(=O)Nc1cc(NC(=O)c2c[nH]c3ccccc3c2=O)ccc1C(C)(C)C` [Compound 14, [5-[(4-oxo-1H-quinolin-3-yl)carbonylamino]-2-tert-butyl-phenyl]aminoformic acid methyl ester], the Emax fell in the range of 25 to 100%.

Regarding `COc1ncccc1NC(=O)c1c[nH]c2ccccc2c1=O` [Compound 15, N-(2-methoxy-3-pyridyl)-4-oxo-1H-quinoline-3-carboxamide], the Emax was in the range of 25 to 100%.

In the case of `CCCc1ccccc1NC(=O)c1c[nH]c2ccccc2c1=O` [Compound 16, 4-oxo-N-(2-propylphenyl)-1H-quinoline-3-carboxamide], the Emax fell in the range of 25 to 100%.

Consider `CCCOc1ccc(N)cc1NC(=O)c1c[nH]c2ccccc2c1=O` [Compound 17, N-(5-Amino-2-propoxy-phenyl)-4-oxo-1H-quinoline-3-carboxamide], for which the Emax lay within 25 to 100%.

As for `O=C(Nc1cccc2c1Cc1ccccc1-2)c1c[nH]c2ccccc2c1=O` [Compound 18, N-(9H-fluoren-1-yl)-4-oxo-1H-quinoline-3-carboxamide], the Emax lay in the range of 25 to 100%.

As for `O=C(Nc1ccc2ccccc2n1)c1c[nH]c2ccccc2c1=O` [Compound 19, 4-oxo-N-(2-quinolyl)-1H-quinoline-3-carboxamide], the Emax was below 25%.

As for `Cc1ccccc1Oc1ccccc1NC(=O)c1c[nH]c2ccccc2c1=O` [Compound 20, N-[2-(2-methylphenoxy)phenyl]-4-oxo-1H-quinoline-3-carboxamide], the Emax was in the range of 25 to 100%.

Regarding `O=C(Nc1ccc(S(=O)(=O)Nc2ccccn2)cc1)c1c[nH]c2ccccc2c1=O` [Compound 21, 4-oxo-N-[4-(2-pyridylsulfamoyl)phenyl]-1H-quinoline-3-carboxamide], the Emax is below 25%.

For `O=C(Nc1ccc2c(c1)NCC21CC1)c1c[nH]c2ccccc2c1=O` [Compound 22, 4-Oxo-1,4-dihydro-quinoline-3-carboxylic acid N-(1′,2′-dihydrospiro[cyclopropane-1,3′-[3H]indol]-6′-yl)-amide], the Emax was in the range of 25 to 100%.

In the case of `CCOc1ccccc1-c1cc(C(C)(C)C)c(O)cc1NC(=O)c1c[nH]c2ccccc2c1=O` [Compound 23, N-[2-(2-ethoxyphenyl)-5-hydroxy-4-tert-butyl-phenyl]-4-oxo-1H-quinoline-3-carboxamide], the Emax lay in the range of 25 to 100%.

As to `O=C(Nc1cccc(S(=O)(=O)N2CCCC2)c1)c1c[nH]c2ccccc2c1=O` [Compound 24, 4-oxo-N-(3-pyrrolidin-1-ylsulfonylphenyl)-1H-quinoline-3-carboxamide], the Emax is below 25%.

As for `CC(=O)Nc1cccc(-c2ccccc2NC(=O)c2c[nH]c3ccccc3c2=O)c1` [Compound 25, N-[2-(3-acetylaminophenyl)phenyl]-4-oxo-1H-quinoline-3-carboxamide], the EC50 (in general, the concentration at which the effect is half-maximal) was 10 to 25 µM and the Emax is 25 to 100%.

Take `O=C(Nc1ccccc1N1CCCCC1)c1c[nH]c2ccccc2c1=O` [Compound 26, 4-oxo-N-[2-(1-piperidyl)phenyl]-1H-quinoline-3-carboxamide]: the Emax was in the range of 25 to 100%.

On to `COCCOC(=O)NCC(C)(C)c1ccc(NC(=O)c2c[nH]c3ccccc3c2=O)cc1` [Compound 28, [2-methyl-2-[4-[(4-oxo-1H-quinolin-3-yl)carbonylamino]phenyl]-propyl]aminoformic acid 2-methoxyethyl ester], for which the Emax is 25 to 100%.

On to `CC(C)n1cc(C(=O)Nc2ccccc2)c(=O)c2ccccc21` [Compound 29, 1-isopropyl-4-oxo-N-phenyl-1H-quinoline-3-carboxamide], for which the Emax was 25 to 100%.

As for `COC(=O)Nc1cc(NC(=O)c2c[nH]c3ccccc3c2=O)ccc1C(C)C` [Compound 30, [2-isopropyl-5-[(4-oxo-1H-quinolin-3-yl)carbonylamino]phenyl]aminoformic acid methyl ester], the Emax is 25 to 100%.

For `Cc1ccc(NC(=O)c2c[nH]c3ccccc3c2=O)cc1` [Compound 31, 4-oxo-N-(p-tolyl)-1H-quinoline-3-carboxamide], the Emax is 25 to 100%.

For the compound `O=C(Nc1cc2[nH]ccc2cc1Cl)c1c[nH]c2ccccc2c1=O` [Compound 32, N-(5-chloro-1H-indol-6-yl)-4-oxo-1H-quinoline-3-carboxamide], the Emax fell in the range of 25 to 100%.
